The results in this text go back to patent publication US20160113921A1, “COMBINATION THERAPY COMPRISING OXAZOLIDINONE-QUINOLONES FOR USE IN TREATING BACTERIAL INFECTIONS” (MORPHOCHEM AKTIENGESELLSCHAFT FÜR KOMBINATORISCHE CHEMIE, priority 2013, published 2016).

What all share (type): cell-based
The subject of assay [1] is S. aureus DSM 11823, clone 16 (MSSA, quinolone-resistant). The experiment in a line: microbe, parasite or virus in culture. The conditions noted are these: Staphylococcus aureus. The procedure:
(§1) MIC-testing was done immediately after preparation of the dilutions. All tests were done in duplicate and repeated once on a separate occasion.
(§2) 1 mL of the bacterial suspension was transferred into a tube containing 10 mL CAMHB and was vortexed thoroughly. (S. pneumoniae 1 mL in 10 mL CAMHB+5% lysed horse blood). Columns 1-15 of the 96-well plate were inoculated with 5 μL of this suspension (1-15=antibacterial solution, 16=sterile medium without test item).
(§3) Turbidity was read visually with a mirror.

Assay [2] relates to S. pneumoniae BAY 19397 (penicillin-, macrolide-, quinolone-resistant). The experiment in a line: MIC, broth microdilution (CLSI), CAMHB. The following applies: Streptococcus pneumoniae. On the procedure: as §1, §2, §3
The subject of another assay is S. pneumoniae ATCC 33400. Description: MIC, broth microdilution (CLSI), CAMHB. The following applies: Streptococcus pneumoniae. On the procedure: as §1, §2, §3
Assay [3] concerns E. faecium UW 3695 (linezolid and quinolone-resistant). The experiment in a line: MIC, broth microdilution (CLSI), CAMHB. The following applies: Enterococcus faecium. On the procedure: as §1, §2, §3
The subject of the next assay is S. aureus ATCC 29213. Description: MIC, broth microdilution (CLSI), CAMHB. The following applies: Staphylococcus aureus. The procedure: as §1, §2, §3
(Broth dilution looks for growth in wells or tubes with falling amounts of substance.)

The subject of assay [4] is S. aureus Visa Mu 50 (MRSA, vancomycin intermediate susceptible). The experiment in a line: MIC, broth microdilution (CLSI), CAMHB. The conditions noted are these: Staphylococcus aureus. The procedure: as §1, §2, §3
The next assay deals with E. faecalis V583 (VanB). Description: MIC, broth microdilution (CLSI), CAMHB. The conditions noted are these: Enterococcus faecalis. On the procedure: as §1, §2, §3
The test system of a further assay is E. faecalis ATCC 29212. The experiment in a line: MIC, broth microdilution (CLSI), CAMHB. The conditions noted are these: Enterococcus faecalis. The procedure:
as §1, §2, §3

For assay [5], the system named is S. aureus ATCC 33593 (MRSA). Description: MIC, broth microdilution (CLSI), CAMHB. The conditions noted are these: Staphylococcus aureus. The procedure:
as §1, §2, §3

In assay [6] the test system is S. aureus NRS-119 (MRSA, linezolid- and quinolone-resistant). The experiment in a line: MIC, broth microdilution (CLSI), CAMHB. The conditions noted are these: Staphylococcus aureus. On the procedure:
as §1, §2, §3

The subject of the next assay is E. faecium DSMZ 2146. The experiment in a line: MIC, broth microdilution (CLSI), CAMHB. The following applies: Enterococcus faecium. The procedure: as §1, §2, §3
Setting [7] is: monosubstance, Spn 19397, read-out: MIC.
The mark [8] stands for this setting: monosubstance, Spn ATCC33400, read-out: MIC.
The mark [9] stands for this setting: monosubstance, Efc UW3695, read-out: MIC.
Where [10] appears, read: monosubstance, Sa ATCC29213, read-out: MIC.
The mark [11] stands for this setting: monosubstance, Sa VisaMu50, read-out: MIC.
Setting [12] is: monosubstance, Ef V583, read-out: MIC.
Where [13] appears, read: monosubstance, Ef ATCC29212, read-out: MIC.
Setting [14] is: monosubstance, Sa ATCC33593, read-out: MIC.
Setting [15] is: monosubstance, Sa NRS119, read-out: MIC.
The mark [16] stands for this setting: monosubstance, Efc DSMZ2146, read-out: MIC.

Values after ≈ are worked out from the molar mass of the structure shown. Read-outs that look alike come from different tables or passages of the source.

Take `CO/N=C(\C(=O)N[C@@H]1C(=O)N2C(C(=O)O)=C(CSc3nc(=O)c(=O)[nH]n3C)CS[C@H]12)c1csc(N)n1` [ceftriaxone]: the MIC was 4 µg/mL (≈ 7.21 µM) in assay [1]; 4 µg/mL (≈ 7.21 µM) in assay [2] (setting [7]); 0.0075 µg/mL (≈ 0.0135 µM) with S. pneumoniae ATCC 33400 (setting [8]); 32 µg/mL (≈ 57.7 µM) in assay [3] (setting [9]); 4 µg/mL (≈ 7.21 µM) in the assay with S. aureus ATCC 29213 (setting [10]); 16 µg/mL (≈ 28.9 µM) in assay [4] (setting [11]). Besides, the MIC in the assay on E. faecalis V583 (VanB) (setting [12]) was 0.5 µg/mL (≈ 0.902 µM); in the assay with E. faecalis ATCC 29212 (setting [13]) it was 0.5 µg/mL (≈ 0.902 µM); in [5] (setting [14]), greater than 256 µg/mL; in assay [6] (setting [15]) it was greater than 256 µg/mL; with E. faecium DSMZ 2146 (setting [16]), 0.5 µg/mL (≈ 0.902 µM).

For `COc1c(N2C[C@@H]3CCCN[C@@H]3C2)c(F)cc2c(=O)c(C(=O)O)cn(C3CC3)c12` [moxifloxacin], the MIC in assay [2] (setting [7]) was 4 µg/mL (≈ 9.96 µM); in the assay with S. pneumoniae ATCC 33400 (setting [8]) it was 0.25 µg/mL (≈ 0.623 µM); in [3] (setting [9]), 64 µg/mL (≈ 159 µM); with S. aureus ATCC 29213 (setting [10]), 0.12 µg/mL (≈ 0.299 µM); in assay [4] (setting [11]), 8 µg/mL (≈ 19.9 µM); in the assay with E. faecalis V583 (VanB) (setting [12]), 0.25 µg/mL (≈ 0.623 µM). Also, the MIC in the assay on E. faecalis ATCC 29212 (setting [13]) came out at 0.5 µg/mL (≈ 1.25 µM); in assay [5] (setting [14]) it was 0.06 µg/mL (≈ 0.149 µM); in [6] (setting [15]), 8 µg/mL (≈ 19.9 µM); in the assay with E. faecium DSMZ 2146 (setting [16]), 0.5 µg/mL (≈ 1.25 µM).

As to `CN[C@H](CC(C)C)C(=O)N[C@H]1C(=O)N[C@@H](CC(N)=O)C(=O)N[C@H]2C(=O)N[C@H]3C(=O)N[C@H](C(=O)N[C@H](C(=O)O)c4cc(O)cc(O)c4-c4cc3ccc4O)[C@H](O)c3ccc(c(Cl)c3)Oc3cc2cc(c3O[C@@H]2O[C@H](CO)[C@@H](O)[C@H](O)[C@H]2O[C@H]2C[C@](C)(N)[C@H](O)[C@H](C)O2)Oc2ccc(cc2Cl)[C@H]1O` [vancomycin], the MIC in [1] was 0.015 µg/mL (≈ 0.0104 µM); in assay [2], 0.25 µg/mL (≈ 0.173 µM); against S. pneumoniae ATCC 33400 (ATCC33400) it was 0.25 µg/mL (≈ 0.173 µM); in assay [3], 0.25 µg/mL (≈ 0.173 µM); in the assay on S. aureus ATCC 29213 (ATCC29213) it was 0.25 µg/mL (≈ 0.173 µM); in assay [4], 2 µg/mL (≈ 1.38 µM). In addition, the MIC against E. faecalis V583 (VanB) was found to be 32 µg/mL (≈ 22.1 µM); in the assay on E. faecalis ATCC 29212 (ATCC29212), 1 µg/mL (≈ 0.69 µM); in assay [5], 0.5 µg/mL (≈ 0.345 µM); in assay [6], 1 µg/mL (≈ 0.69 µM); with E. faecium DSMZ 2146 (DSMZ2146), 0.25 µg/mL (≈ 0.173 µM).

For `CC1(C)S[C@@H]2[C@H](NC(=O)[C@H](N)c3ccccc3)C(=O)N2[C@H]1C(=O)O` [ampicillin], the MIC in assay [1] was 0.007 µg/mL (≈ 0.02 µM); in [2] (setting [7]), 1 µg/mL (≈ 2.86 µM); in the assay on S. pneumoniae ATCC 33400 (setting [8]) it was 0.0075 µg/mL (≈ 0.0215 µM); in assay [3] (setting [9]) it was 32 µg/mL (≈ 91.6 µM); in the assay on S. aureus ATCC 29213 (setting [10]), 0.5 µg/mL (≈ 1.43 µM); in [4] (setting [11]), 256 µg/mL (≈ 733 µM). The MIC in the assay with E. faecalis V583 (VanB) (setting [12]) stood at 0.5 µg/mL (≈ 1.43 µM); in the assay with E. faecalis ATCC 29212 (setting [13]), 1 µg/mL (≈ 2.86 µM); in assay [5] (setting [14]) it was 64 µg/mL (≈ 183 µM); in assay [6] it was 128 µg/mL (≈ 366 µM); against E. faecium DSMZ 2146 (DSMZ2146), 128 µg/mL (≈ 366 µM).
